Data taken from US20250177351A1, “ISOINDOLINE COMPOSITIONS AND METHODS FOR TREATING NEURODEGENERATIVE DISEASE” (Cognition Therapeutics, Inc., priority 2022, published 2025).

Key:
[1] = tested on: CSF proteins; experiment: Phase 1b/2a trial: CSF protein expression by LC/MSMS; type: in vivo, human
Procedure: COG0102 clinical trial: This trial (ClinicalTrials.gov NCT02907567) was a randomized, double-blind, placebo-controlled clinical trial in mild to moderate Alzheimer's patients (MMSE 18-26) (See FIG. 1 for clinical trial design). The trial was conducted at six sites in Australia. Patients were randomized into placebo (n=5) or CT1812-treated groups: 90 mg (n=4), 280 mg (n=5) or 560 mg (n=5) and treated once daily for 28 days. Clinical chemistry was done at Sydpath (Sydney, AU). Pharmacokinetics were done at CPR Pharma Services (Adelaide, AU). Cerebrospinal fluid samples were taken at screening and day 21-28 of treatment and aliquoted. Plasma samples were taken at screening or Day 1 (one sample) and day 14-28, then spun down to separate plasma and aliquoted. One set of CSF samples was analyzed for Alzheimer's disease biomarkers; protein measurements (Aβ42, Aβ40, total tau, tau phosphorylated at threonine 181 (phosphorylated tau), NFL and neurogranin) were performed using commercially available ELISA assays from Fujirebio according to the manufacturer's instructions (INNOTEST β-AMYLOID(1-42), INNOTEST β-AMYLOID(1-40), INNOTEST hTau Ag, INNOTEST PHOSPHO-TAU(181P), Uman Diagnostics NFL assay). Neurogranin was measured with a sandwich ELISA method using antibodies Ng2 and Ng22 developed at the University of Gotteborg (Kvartsberg et al. 2015). Identical aliquots of CSF, and plasma were analyzed for protein expression changes via LC/MSMS at Caprion (see below).
LC MSMS biomarker discovery: Matched screening and day 28 plasma and CSF samples were analyzed by LC/MSMS at Caprion Biosciences Inc. Plasma was depleted of high and medium abundance proteins using a commercial immunoaffinity column, IgY14-Supermix (Sigma). CSF was depleted of only 14 high abundance proteins using MARS-14 (Agilent). All samples were digested with trypsin and plasma samples were fractionated by strong cation exchange chromatography (3 fractions). Both CSF and plasma samples were analyzed using a NanoAcquity UPLC coupled to a Q Exactive MS. […] The 12 most intense peaks per survey scan with charge states 2-8 fragmented and scanned with a mass range from 200 to 2000 m/z at a resolution of 17,500. Raw spectrometer data files for each LC-MS run were aligned independently using Elucidator software (Rosetta Biosoftware). The MS/MS spectra were matched to corresponding peptide sequences found in the Uniprot Human protein database (January 2017) using Mascot software, allowing for up to 2 missed cleavages, a peptide tolerance of 20 ppm, and an MS/MS tolerance of 0.05 Da. Outlier detection was performed by determining the average log-intensity of all isotope groups (IG) over injection order for all samples. Samples with an average value greater than 2 standard deviations from the mean were flagged for investigation. Following data transformation and normalization, expression analysis of the identified isotope groups was performed and the statistical significance of each comparison was assessed with a parametric, linear mixed model (LMM) and a non-parametric Wilcoxon ranked test (ranked p-values). Expression analysis was also performed at the peptide and protein levels, which used the same methodology as above, but applied to peptide/protein intensities, derived by rolling-up the corresponding isotope group intensities. Isotope groups not detected in at least half of the samples in either of the two groups being compared were not used for the roll-up.
Heat map analysis: The difference in protein abundance between day 28 and baseline for each sample was normalized for graphical comparison by converting to z-score. First, the mean and standard deviation (SD) of day 28—baseline values were calculated across all paired samples for each protein. Then, for each patient's paired sample fold change, the difference from the mean was determined and divided by the SD to derive the z-score. […]

[2] = Phase 1 MAD study: cognitive testing in healthy elderly cohort; type: in vivo, human; conditions: 560 mg for 14 days (N = 7)
Procedure: The Alzheimer's Disease Assessment Scale-Cognition Subscale (ADAS-Cog 13) and a cognitive battery (including the category fluency test, controlled word association test, WMS-R digit span, digit symbol substitution test, and Rey Auditory Verbal Learning Test) were administered to subjects in the elderly cohort at baseline and on Day 14.

[3] = tested on: CYP isoenzymes; experiment: Drug interaction studies

With `CC(C)(C)Oc1cc(CCC(C)(C)N2Cc3ccc(S(C)(=O)=O)cc3C2)ccc1O` [CT1812] the “Synaptotagmin-1 expression in CSF, decrease in CT1812-treated vs. placebo” value ([1]; AD patients, 28 days) was 63%, the “number of CSF proteins changed differentially vs placebo” value ([1]; AD patients, 28 days, p<0.05) was 30 and the “FC (Treated) AFM” value ([1]; CSF, 28 days vs screening) was 0.94. The “FC (Treated) ANGPTL2” value ([1]; CSF, 28 days vs screening) was 0.80, the “FC (Treated) CNTN1” value ([1]; CSF, 28 days vs screening) was 0.97 and the “FC (Treated) EFNB1” value ([1]; CSF, 28 days vs screening) was 0.97. For the same compound, the “FC (Treated) EPHA4” value ([1]; CSF, 28 days vs screening) was 0.94, the “FC (Treated) MBL2” value ([1]; CSF, 28 days vs screening) was 0.75 and the “FC (Treated) NPPC” value ([1]; CSF, 28 days vs screening) was 0.90. For the same compound, the “FC (Treated) P4HB” value ([1]; CSF, 28 days vs screening) was 1.10, the “FC (Treated) RBP4” value ([1]; CSF, 28 days vs screening) was 0.82 and the “FC (Treated) ROBO1” value ([1]; CSF, 28 days vs screening) was 0.96. The “FC (Treated) SEMA3F” value ([1]; CSF, 28 days vs screening) was 1.40, the “FC (Treated) SERPINA4” value ([1]; CSF, 28 days vs screening) was 0.88 and the “FC (Treated) SMPDL3B” value ([1]; CSF, 28 days vs screening) was 0.97. For the same compound, the “FC (Treated) SYT1” value ([1]; CSF, 28 days vs screening) was 0.78, the “FC (Treated) TPII” value ([1]; CSF, 28 days vs screening) was 0.90 and the “FC (Treated) YWHAB” value ([1]; CSF, 28 days vs screening) was 0.90. For the same compound, the “FC (Treated vs. Placebo) AFM” value ([1]; CSF, 28 days, p-value 0.002, rank p-value 0.003) was 0.84, the “FC (Treated vs. Placebo) SYT1” value ([1]; CSF, 28 days, p-value 0.011, rank p-value 0.011) was 0.63 and the “FC (Treated vs. Placebo) RBP4” value ([1]; CSF, 28 days, p-value 0.018, rank p-value 0.011) was 0.81. For the same compound, the “FC (Treated vs. Placebo) MBL2” value ([1]; CSF, 28 days, p-value 0.020, rank p-value 0.006, FC>10 may be artifact) was >10, the “FC (Treated vs. Placebo) TNC” value ([1]; CSF, 28 days, p-value 0.029, rank p-value 0.011) was 0.91 and the “FC (Treated vs. Placebo) EFNB1” value ([1]; CSF, 28 days, p-value 0.029, rank p-value 0.034) was 0.93. The “FC (Treated vs. Placebo) EPHA4” value ([1]; CSF, 28 days, p-value 0.035, rank p-value 0.076) was 0.93, the “FC (Treated vs. Placebo) MDGA2” value ([1]; CSF, 28 days, p-value 0.036, rank p-value 0.106) was 0.71 and the “FC (Treated vs. Placebo) YWHAB” value ([1]; CSF, 28 days, p-value 0.038, rank p-value 0.148) was 0.81. The “FC (Treated vs. Placebo) ROBO1” value ([1]; CSF, 28 days, p-value 0.042, rank p-value 0.106) was 0.82, the “FC (Treated vs. Placebo) TPII” value ([1]; CSF, 28 days, p-value 0.044, rank p-value 0.076) was 0.87 and the “FC (Treated vs. Placebo) CD14” value ([1]; CSF, 28 days, p-value 0.046, rank p-value 0.034) was 1.20. The “FC (Treated vs. Placebo) SERPINA4” value ([1]; CSF, 28 days, p-value 0.047, rank p-value 0.020) was 0.79, the “FC (Treated vs. Placebo) CNTN1” value ([1]; CSF, 28 days, p-value 0.048, rank p-value 0.076) was 0.81 and the “FC (Treated vs. Placebo) ANGPTL2” value ([1]; CSF, 28 days, p-value 0.050, rank p-value 0.148) was 0.69. The “FC (Treated vs. Placebo) NPPC” value ([1]; CSF, 28 days, p-value 0.060, rank p-value 0.020) was 0.91, the “COWAT (Trial 2), Mean (SD)” value ([2]; Day 14, Day 0: 9.6 (4.2)) was 10.6 (5.1) and the “COWAT (Trial 1), Mean (SD)” value ([2]; Day 14, Day 0: 11.3 (5.7)) was 12.6 (4.5). The “COWAT (Trial 3), Mean (SD)” value ([2]; Day 14, Day 0: 14.6 (5.7)) was 15.1 (3.7), the “RAVLT, Mean (SD)” value ([2]; Day 14, Day 0: 17.3 (3.9)) was 18.7 (3.1) and the “WMS-R (Digit Span), Mean (SD)” value ([2]; Day 14, Day 0: 17.9 (3.3)) was 17.9 (3.3). For the same compound, the “CFT, Mean (SD)” value ([2]; Day 14, Day 0: 18.4 (5.5)) was 19.7 (2.4), the “DSST, Mean (SD)” value ([2]; Day 14, Day 0: 78.3 (11.0)) was 80 (9.6) and the “interactions with CYP isoenzymes” value [3] was “minor interactions”.
